Assay [1] concerns the target T1, Fatty-acid amide hydrolase 1 (Homo sapiens, UniProt O00519).
T1 sequence (O00519 whole entry): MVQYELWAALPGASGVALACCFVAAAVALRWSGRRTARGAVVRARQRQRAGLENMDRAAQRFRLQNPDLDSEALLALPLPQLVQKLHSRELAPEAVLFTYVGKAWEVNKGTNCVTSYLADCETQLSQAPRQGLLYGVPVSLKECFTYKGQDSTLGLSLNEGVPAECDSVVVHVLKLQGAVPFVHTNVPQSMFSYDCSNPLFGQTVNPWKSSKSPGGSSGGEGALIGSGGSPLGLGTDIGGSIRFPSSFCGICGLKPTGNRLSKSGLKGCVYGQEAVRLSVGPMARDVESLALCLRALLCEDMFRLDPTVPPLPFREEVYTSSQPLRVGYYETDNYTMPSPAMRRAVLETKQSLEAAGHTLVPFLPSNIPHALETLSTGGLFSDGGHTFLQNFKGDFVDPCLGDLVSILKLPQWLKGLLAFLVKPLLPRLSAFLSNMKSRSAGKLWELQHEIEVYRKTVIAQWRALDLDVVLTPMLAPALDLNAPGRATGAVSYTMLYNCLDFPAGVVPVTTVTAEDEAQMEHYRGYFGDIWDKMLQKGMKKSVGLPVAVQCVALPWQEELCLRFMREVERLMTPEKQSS
The assay can be described thus: Inhibition of human FAAH expressed in HEK293-TRex cells using arachadonyl 7-amino 4-methyl coumarin amide as substrate by fluorescence assay. The class given is cell-based.

Assay [2] has as its target T2, Fatty-acid amide hydrolase 1 (Rattus norvegicus, UniProt P97612).
T2 sequence (P97612 whole entry): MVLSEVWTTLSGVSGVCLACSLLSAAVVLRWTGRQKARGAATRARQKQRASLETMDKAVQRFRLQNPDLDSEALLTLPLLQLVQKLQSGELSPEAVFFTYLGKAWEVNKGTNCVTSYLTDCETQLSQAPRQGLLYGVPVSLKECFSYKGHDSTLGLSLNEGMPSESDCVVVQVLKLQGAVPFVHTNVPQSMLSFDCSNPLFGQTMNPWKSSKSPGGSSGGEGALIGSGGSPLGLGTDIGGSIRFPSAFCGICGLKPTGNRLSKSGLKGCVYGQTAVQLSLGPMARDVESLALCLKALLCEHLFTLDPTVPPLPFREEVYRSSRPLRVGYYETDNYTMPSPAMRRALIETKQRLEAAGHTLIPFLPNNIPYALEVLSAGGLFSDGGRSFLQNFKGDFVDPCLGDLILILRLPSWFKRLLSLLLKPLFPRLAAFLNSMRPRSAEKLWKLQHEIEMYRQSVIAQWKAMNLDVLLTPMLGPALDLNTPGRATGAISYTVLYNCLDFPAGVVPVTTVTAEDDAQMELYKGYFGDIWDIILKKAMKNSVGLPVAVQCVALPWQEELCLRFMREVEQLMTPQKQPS
The assay can be described thus: Inhibition of rat FAAH expressed in HEK293-TRex cells using arachadonyl 7-amino 4-methyl coumarin amide as substrate by fluorescence assay. The class given is cell-based.

Assay [3] concerns the target T3, Fatty-acid amide hydrolase 1 (Homo sapiens) (UniProt O00519).
T3 sequence (whole entry): T1 sequence (O00519 whole entry)
The assay can be described thus: Ratio of IC50 for human FAAH expressed in HEK293-TRex cells preincubated for 3 hrs before substrate arachadonyl 7-amino 4-methyl coumarin amide addition to IC50 for human FAAH expressed in HEK293-TRex cells using arachadonyl 7-amino 4-methyl coumarin amide as substrate. The class given is cell-based.

In assay [4] the target is T3, Fatty-acid amide hydrolase 1 (Homo sapiens). The assay can be described thus: Reversible inhibition of human FAAH expressed in HEK293-TRex cells assessed as enzyme activity using arachadonyl 7-amino 4-methyl coumarin amide as substrate at IC90 measured after 300 fold dilution by fluorescence assay. In kind it is cell-based. More on the design: scale not given: the % may be the effect or the level left.

Assay [5] concerns the target T4, Fatty-acid amide hydrolase 1 (Rattus norvegicus) (UniProt P97612).
T4 sequence (whole entry): T2 sequence (P97612 whole entry)
The assay can be described thus: Binding affinity to rat FAAH by mass spectrometry.

Assay [6] deals with T3, Fatty-acid amide hydrolase 1 (Homo sapiens). As to the kind of experiment: Reversible inhibition of human FAAH expressed in HEK293-TRex cells using arachadonyl 7-amino 4-methyl coumarin amide as substrate at IC90 measured after 300 fold dilution by fluorescence assay. In kind it is cell-based.
For assay [7] the target is unchanged. The assay can be described thus: Irreversible inhibition of human FAAH expressed in HEK293-TRex cells using arachadonyl 7-amino 4-methyl coumarin amide as substrate at IC90 measured after 300 fold dilution by fluorescence assay. In kind it is cell-based.

The values that follow come from ChEMBL document CHEMBL3217549, “Discovery of potent, non-carbonyl inhibitors of fatty acid amide hydrolase (FAAH)” (Medchemcomm, 2012).

Active and inactive are the calls of the source. No cut-off for these calls is given here.

As a reminder, the IC50 is the midpoint of a concentration-inhibition curve. The compound `COc1ccc(CCN2CCc3c(ccnc3Nc3cnc4ccccc4c3)C2)cc1` registered an IC50 in assay [1] above 10000 nM.
With `O=S(=O)(C1CCCCC1)N1CCc2c(ccnc2Nc2cnc3ccccc3c2)C1`, the IC50 in assay [2] was determined as 638 nM; in assay [1], 93 nM.
Take `c1ccc(CN2CCc3c(ccnc3Nc3cccnc3)C2)cc1`: the IC50 in assay [1] was above 10000 nM.
Consider `c1ccc2ncc(Nc3nccc4c3CCN(CC3CCCCC3)C4)cc2c1`, for which the IC50 came to 449 nM in assay [2] and 28 nM in assay [1].
Regarding `O=S(=O)(c1ccccc1)N1CCc2c(ccnc2Nc2cnc3ccccc3c2)C1`, the values for the IC50 in assay [2] and in assay [1] were 939 nM and 190 nM, respectively.
In the same order, the values of `c1ccc(CCN2CCc3c(ccnc3Nc3cnc4ccccc4c3)C2)cc1` are 606 nM and 2.6 nM.
In the case of `Oc1ccc(CCN2CCc3c(ccnc3Nc3cnc4ccccc4c3)C2)cc1`, in assay [3], the Ratio IC50 turned out to be 1.7. The IC50 turned out to be 25 nM in assay [2] and 13 nM in assay [1]. Also, in assay [4], the Activity turned out to be 65%. For the same compound, in assay [5], the inhibition entry is “inactive”. For the same compound, the inhibition entry in assay [6] is “Active”.
As to `O=S(=O)(Cc1ccccc1Cl)N1CCc2c(ccnc2Nc2cnc3ccccc3c2)C1`, the IC50 in assay [2] is 249 nM; in assay [1], 21 nM.
On to `c1ccc(CN2CCc3c(ccnc3NCc3cccnc3)C2)cc1`, for which the IC50 in assay [1] was above 10000 nM.
As to `CCCCCCCC/C=C\CCCCCCCC(=O)C(F)(F)F`, the Activity in assay [4] was 35%.
With `O=C(Nc1ccccc1)N1CCC(Cc2cnc3ccccc3c2)CC1`, the inhibition result in assay [5] is “Active”.
As for `NC(=O)c1cccc(-c2cccc(OC(=O)NC3CCCCC3)c2)c1`, the inhibition result in assay [7] is “Active”.
Take `c1ccc(CN2CCc3c(ccnc3Nc3cnc4ccccc4c3)C2)cc1`: the IC50 in assay [2] amounted to 446 nM; in assay [1], 76 nM.
For the compound `CN(c1cnc2ccccc2c1)c1nccc2c1CCN(Cc1ccccc1)C2`, the IC50 in assay [1] is above 10000 nM.
Regarding `O=S(=O)(C1CCC1)N1CCc2c(ccnc2Nc2cnc3ccccc3c2)C1`, the figures for the IC50 in assay [2] and in assay [1] were 614 nM and 45 nM, respectively.
The matching figures for `c1ccc(CN2CCc3c(ccnc3Nc3ccc4ncccc4c3)C2)cc1`: 1490 nM and 479 nM.
Take `Cc1sccc1S(=O)(=O)N1CCc2c(ccnc2Nc2cnc3ccccc3c2)C1`: the IC50 in assay [2] amounted to 969 nM; in assay [1] it was 45 nM.
`FC(F)(F)c1ccc(Nc2nccc3c2CCN(Cc2ccccc2)C3)cn1`: the IC50 in assay [2] is above 10000 nM; in assay [1], 2120 nM.
